# According to ChEMBL document CHEMBL3124848, “Crystal structures of human transthyretin complexed with glabridin” (J Med Chem, 2014):
# Target: Transthyretin (Homo sapiens, UniProt P02766, V50M)
# Assay: Inhibition of transthyretin V30M mutant (unknown origin) expressed in Escherichia coli assessed as inhibition of sodium acetate-mediated aggregation preincubated for 30 mins followed by sodium acetate addition measured after 96 hrs by thioflavin T assay
row,Compound,IC50
1,Oc1ccc([C@@H]2COc3cc(O)ccc3C2)cc1,13 µM
2,O=c1c(-c2ccc(O)cc2)coc2cc(O)ccc12 [DAIDZEIN],16 µM
3,O=c1cc(-c2ccc(O)c(O)c2)oc2cc(O)cc(O)c12 [LUTEOLIN],6.4 µM

# Other lines, results leading:
row,IC50,Compound
1,6.4 µM,CC1(C)C=Cc2c(ccc3c2OC[C@@H](c2ccc(O)cc2O)C3)O1 [GLABRIDIN]
2,7.8 µM,O=c1c(-c2ccc(O)cc2)coc2cc(O)cc(O)c12 [GENISTEIN]
